From ChEMBL document CHEMBL3991601, “The target landscape of clinical kinase drugs” (Science, 2017)
pKd: −log10 of the molar value. Calls of active or inactive are those of the source.

What was measured:
[1] = target: T1, Peroxisomal acyl-coenzyme A oxidase 3 (Homo sapiens, UniProt O15254)
T1 sequence (O15254 whole entry): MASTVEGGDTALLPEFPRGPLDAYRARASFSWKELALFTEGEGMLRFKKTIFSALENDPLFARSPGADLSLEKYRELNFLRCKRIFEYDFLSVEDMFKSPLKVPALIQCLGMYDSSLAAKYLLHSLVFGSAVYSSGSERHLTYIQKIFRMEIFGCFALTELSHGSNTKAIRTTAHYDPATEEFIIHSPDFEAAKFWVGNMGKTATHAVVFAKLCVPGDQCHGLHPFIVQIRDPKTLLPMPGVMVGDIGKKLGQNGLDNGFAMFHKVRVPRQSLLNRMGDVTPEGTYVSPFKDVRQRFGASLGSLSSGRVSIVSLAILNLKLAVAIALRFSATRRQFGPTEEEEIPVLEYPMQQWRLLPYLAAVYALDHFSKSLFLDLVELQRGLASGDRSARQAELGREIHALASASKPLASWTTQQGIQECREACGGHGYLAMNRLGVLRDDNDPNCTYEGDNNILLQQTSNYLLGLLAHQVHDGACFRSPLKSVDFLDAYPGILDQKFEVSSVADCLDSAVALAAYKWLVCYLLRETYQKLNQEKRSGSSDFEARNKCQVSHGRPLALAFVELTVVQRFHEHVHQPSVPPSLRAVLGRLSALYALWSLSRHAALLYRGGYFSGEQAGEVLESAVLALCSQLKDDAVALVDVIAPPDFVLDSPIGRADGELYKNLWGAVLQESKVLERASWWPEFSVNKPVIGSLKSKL

[2] = target: Bone morphogenetic protein receptor type-1A (Homo sapiens, UniProt P36894)
Chain of Bone morphogenetic protein receptor type-1A (P36894 whole entry): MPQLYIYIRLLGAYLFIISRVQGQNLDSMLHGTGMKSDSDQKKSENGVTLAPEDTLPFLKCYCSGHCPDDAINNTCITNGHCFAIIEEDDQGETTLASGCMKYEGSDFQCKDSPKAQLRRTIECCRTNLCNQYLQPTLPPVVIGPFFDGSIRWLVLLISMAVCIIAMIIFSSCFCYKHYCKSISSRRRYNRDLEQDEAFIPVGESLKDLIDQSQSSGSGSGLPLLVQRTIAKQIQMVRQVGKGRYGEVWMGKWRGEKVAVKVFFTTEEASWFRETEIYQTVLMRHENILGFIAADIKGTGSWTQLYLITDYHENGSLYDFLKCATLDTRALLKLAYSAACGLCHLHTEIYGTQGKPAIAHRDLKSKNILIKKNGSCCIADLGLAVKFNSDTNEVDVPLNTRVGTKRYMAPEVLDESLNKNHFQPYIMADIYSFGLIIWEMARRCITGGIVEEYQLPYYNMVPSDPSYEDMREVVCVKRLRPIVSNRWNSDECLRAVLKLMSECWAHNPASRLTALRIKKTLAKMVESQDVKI

[3] = target: Citron Rho-interacting kinase (Homo sapiens, UniProt O14578)
[4] = target: Epithelial discoidin domain-containing receptor 1 (Homo sapiens, UniProt Q08345)
Chain of Epithelial discoidin domain-containing receptor 1 (Q08345 whole entry, the tested form may be a part): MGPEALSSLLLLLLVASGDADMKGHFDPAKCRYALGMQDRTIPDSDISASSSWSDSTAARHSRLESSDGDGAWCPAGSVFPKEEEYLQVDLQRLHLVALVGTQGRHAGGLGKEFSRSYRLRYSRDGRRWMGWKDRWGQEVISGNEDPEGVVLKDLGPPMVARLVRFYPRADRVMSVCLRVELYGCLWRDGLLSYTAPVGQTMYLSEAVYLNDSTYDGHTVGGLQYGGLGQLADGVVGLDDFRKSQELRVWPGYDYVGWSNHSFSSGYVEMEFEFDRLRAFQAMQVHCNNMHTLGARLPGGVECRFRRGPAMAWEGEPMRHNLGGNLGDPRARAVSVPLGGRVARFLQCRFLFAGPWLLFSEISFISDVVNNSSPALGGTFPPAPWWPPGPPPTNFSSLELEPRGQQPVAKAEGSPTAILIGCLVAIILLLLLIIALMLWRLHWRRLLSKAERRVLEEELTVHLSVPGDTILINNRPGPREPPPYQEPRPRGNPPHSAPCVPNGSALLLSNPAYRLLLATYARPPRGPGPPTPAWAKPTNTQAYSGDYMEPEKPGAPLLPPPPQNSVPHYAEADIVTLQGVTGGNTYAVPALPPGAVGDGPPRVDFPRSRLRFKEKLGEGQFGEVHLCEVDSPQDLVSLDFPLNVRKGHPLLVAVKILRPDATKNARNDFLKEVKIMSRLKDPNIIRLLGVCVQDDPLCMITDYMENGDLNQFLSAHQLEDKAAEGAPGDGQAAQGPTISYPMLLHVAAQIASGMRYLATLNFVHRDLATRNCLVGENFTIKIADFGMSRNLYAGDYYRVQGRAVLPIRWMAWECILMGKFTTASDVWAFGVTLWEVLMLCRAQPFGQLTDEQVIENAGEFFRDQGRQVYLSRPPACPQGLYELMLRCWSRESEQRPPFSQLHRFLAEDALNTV

[5] = target: T2, Serine/threonine-protein kinase ICK (Homo sapiens, UniProt Q9UPZ9)
T2 sequence (Q9UPZ9 whole entry): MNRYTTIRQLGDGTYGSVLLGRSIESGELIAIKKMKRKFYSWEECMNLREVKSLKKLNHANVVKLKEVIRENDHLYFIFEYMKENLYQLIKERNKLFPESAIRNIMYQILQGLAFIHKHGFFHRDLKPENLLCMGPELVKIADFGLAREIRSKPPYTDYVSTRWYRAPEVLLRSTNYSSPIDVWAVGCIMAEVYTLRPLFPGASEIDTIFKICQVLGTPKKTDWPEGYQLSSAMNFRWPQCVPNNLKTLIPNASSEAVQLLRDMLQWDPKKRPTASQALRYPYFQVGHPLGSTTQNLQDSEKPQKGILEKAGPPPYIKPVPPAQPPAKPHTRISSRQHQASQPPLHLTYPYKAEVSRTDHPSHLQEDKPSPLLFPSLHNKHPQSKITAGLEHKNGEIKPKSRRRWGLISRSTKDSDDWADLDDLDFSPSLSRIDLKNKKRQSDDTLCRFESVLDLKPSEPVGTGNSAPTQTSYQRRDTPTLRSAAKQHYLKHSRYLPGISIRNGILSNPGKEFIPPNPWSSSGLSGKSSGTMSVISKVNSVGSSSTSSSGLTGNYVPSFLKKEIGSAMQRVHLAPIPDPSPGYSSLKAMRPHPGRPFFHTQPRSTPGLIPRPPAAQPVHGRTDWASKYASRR

[6] = target: T3, Interleukin-1 receptor-associated kinase 4 (Homo sapiens, UniProt Q9NWZ3)
T3 sequence (Q9NWZ3 whole entry): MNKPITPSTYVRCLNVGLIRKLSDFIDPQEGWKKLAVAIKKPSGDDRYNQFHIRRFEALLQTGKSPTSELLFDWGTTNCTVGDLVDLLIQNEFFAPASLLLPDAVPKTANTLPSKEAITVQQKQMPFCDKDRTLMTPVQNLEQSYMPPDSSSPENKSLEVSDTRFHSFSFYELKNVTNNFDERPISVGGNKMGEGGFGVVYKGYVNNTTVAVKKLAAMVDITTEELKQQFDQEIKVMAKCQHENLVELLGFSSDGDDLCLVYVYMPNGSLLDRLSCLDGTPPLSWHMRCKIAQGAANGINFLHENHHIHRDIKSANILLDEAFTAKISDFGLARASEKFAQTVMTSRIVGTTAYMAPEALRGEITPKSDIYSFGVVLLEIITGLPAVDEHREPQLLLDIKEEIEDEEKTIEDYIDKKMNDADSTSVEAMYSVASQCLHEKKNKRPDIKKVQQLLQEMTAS

[7] = target: Mitogen-activated protein kinase kinase kinase kinase 5 (Homo sapiens, UniProt Q9Y4K4)
Chain of Mitogen-activated protein kinase kinase kinase kinase 5 (Q9Y4K4 whole entry): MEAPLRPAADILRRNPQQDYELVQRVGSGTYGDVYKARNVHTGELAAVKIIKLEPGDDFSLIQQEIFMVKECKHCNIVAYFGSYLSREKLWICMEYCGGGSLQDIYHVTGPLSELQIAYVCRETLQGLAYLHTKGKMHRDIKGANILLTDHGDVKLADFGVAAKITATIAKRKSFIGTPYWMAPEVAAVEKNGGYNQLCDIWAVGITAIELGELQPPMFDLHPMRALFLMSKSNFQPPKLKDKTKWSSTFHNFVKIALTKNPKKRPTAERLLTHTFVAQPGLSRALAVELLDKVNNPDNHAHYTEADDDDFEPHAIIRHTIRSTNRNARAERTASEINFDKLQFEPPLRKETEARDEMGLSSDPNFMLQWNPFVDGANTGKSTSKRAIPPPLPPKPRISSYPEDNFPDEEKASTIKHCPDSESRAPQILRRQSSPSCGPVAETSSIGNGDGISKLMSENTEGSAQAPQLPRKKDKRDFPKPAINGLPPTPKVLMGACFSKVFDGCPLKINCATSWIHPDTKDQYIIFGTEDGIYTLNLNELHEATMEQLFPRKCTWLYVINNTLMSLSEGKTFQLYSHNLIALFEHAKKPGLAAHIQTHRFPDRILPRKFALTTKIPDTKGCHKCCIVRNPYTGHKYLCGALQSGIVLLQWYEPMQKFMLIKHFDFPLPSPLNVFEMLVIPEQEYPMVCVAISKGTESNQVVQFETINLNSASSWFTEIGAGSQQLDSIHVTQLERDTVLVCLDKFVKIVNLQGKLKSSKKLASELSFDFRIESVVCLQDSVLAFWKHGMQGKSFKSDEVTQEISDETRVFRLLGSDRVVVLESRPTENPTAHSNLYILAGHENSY

[8] = target: Midasin (Homo sapiens, UniProt Q9NU22)
[9] = target: T4, cGMP-dependent protein kinase 1 (Homo sapiens, UniProt Q13976)
T4 sequence (Q13976 whole entry): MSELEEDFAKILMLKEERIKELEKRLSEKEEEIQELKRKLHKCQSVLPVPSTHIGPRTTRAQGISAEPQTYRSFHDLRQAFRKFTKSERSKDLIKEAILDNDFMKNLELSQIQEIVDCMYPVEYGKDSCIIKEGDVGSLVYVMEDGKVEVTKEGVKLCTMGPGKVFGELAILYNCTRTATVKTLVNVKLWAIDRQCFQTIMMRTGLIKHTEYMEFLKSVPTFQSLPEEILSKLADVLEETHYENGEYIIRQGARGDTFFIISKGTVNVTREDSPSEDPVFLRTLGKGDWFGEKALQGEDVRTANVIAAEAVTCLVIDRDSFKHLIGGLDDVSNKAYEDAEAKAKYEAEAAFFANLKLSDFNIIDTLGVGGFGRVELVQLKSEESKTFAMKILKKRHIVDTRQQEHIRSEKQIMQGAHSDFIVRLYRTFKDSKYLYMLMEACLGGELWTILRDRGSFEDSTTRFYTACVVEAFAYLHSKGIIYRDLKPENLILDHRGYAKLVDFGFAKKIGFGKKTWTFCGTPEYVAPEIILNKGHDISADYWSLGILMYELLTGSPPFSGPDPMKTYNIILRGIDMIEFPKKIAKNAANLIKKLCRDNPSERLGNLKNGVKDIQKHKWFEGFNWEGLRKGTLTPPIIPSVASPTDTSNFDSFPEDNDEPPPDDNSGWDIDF

[10] = target: 26S proteasome regulatory subunit 6B (Homo sapiens, UniProt P43686)
Chain of 26S proteasome regulatory subunit 6B (P43686 whole entry): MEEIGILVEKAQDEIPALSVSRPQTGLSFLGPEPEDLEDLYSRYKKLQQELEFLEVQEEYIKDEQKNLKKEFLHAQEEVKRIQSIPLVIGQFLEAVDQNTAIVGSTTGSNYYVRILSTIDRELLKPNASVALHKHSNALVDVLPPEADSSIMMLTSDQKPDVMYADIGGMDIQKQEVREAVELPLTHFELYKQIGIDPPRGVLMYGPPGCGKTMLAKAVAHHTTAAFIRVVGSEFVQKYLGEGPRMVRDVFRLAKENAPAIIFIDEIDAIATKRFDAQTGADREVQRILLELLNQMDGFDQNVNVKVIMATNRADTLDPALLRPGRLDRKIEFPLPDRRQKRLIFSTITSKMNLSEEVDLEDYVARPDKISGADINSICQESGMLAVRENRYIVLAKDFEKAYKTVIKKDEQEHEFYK

[11] = target: Serine/threonine-protein kinase SIK3 (Homo sapiens, UniProt Q9Y2K2)
Chain of Serine/threonine-protein kinase SIK3 (Q9Y2K2 whole entry): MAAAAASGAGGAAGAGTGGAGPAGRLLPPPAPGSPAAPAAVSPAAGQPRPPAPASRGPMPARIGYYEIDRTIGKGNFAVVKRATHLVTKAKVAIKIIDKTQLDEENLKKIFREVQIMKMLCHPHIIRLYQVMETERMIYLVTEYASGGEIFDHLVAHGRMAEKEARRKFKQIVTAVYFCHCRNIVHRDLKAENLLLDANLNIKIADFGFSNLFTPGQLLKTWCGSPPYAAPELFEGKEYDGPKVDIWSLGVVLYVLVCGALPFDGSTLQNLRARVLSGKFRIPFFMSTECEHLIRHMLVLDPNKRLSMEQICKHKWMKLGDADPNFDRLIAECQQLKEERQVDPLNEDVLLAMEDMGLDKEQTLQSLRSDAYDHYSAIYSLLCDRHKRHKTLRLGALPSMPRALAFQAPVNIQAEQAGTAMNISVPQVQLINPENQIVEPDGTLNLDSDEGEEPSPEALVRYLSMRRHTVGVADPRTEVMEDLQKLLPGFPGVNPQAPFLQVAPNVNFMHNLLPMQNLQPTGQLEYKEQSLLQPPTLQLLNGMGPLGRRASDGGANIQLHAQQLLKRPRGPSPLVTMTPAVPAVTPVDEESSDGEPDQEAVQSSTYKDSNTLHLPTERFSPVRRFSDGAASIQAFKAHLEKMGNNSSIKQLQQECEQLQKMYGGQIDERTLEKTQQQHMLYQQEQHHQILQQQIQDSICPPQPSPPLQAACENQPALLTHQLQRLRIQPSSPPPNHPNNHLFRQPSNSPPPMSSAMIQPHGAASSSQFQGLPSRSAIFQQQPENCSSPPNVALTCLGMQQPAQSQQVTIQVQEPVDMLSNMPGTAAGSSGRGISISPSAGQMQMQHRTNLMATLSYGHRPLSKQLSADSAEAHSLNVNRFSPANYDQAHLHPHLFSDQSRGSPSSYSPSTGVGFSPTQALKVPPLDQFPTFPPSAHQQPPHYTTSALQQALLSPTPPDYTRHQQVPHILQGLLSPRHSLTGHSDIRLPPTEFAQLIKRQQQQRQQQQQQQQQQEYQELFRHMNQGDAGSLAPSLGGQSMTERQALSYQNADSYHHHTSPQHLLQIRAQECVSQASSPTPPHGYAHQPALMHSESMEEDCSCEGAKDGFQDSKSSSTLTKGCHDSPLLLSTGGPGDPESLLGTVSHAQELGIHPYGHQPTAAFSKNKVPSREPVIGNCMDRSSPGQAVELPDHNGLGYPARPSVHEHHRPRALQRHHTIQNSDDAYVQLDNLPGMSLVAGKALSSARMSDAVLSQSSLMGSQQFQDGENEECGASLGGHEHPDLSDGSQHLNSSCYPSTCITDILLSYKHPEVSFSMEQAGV

[12] = target: Cyclin-dependent kinase 7 (Homo sapiens, UniProt P50613)
Chain of Cyclin-dependent kinase 7 (P50613 whole entry): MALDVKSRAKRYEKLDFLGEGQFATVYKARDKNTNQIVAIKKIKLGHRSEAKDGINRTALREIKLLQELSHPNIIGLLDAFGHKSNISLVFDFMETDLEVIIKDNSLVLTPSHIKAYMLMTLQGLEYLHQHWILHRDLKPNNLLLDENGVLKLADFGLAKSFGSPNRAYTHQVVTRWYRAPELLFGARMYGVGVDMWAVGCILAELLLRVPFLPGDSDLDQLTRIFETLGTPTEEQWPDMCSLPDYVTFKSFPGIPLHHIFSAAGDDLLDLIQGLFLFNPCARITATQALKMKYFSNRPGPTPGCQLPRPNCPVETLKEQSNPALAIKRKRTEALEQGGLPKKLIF

[13] = target: Mitogen-activated protein kinase kinase kinase kinase 4 (Homo sapiens, UniProt O95819)
Note: in the data inactive means no Kd found up to 30 µM.

SMILES | Kd [1] | Kd [8] | Kd [10] | Kd [2] | Kd [3] | Kd [4] | Kd [5] | Kd [6] | Kd [7] | Kd [9] | Kd [11] | Kd [12] | Kd [13] | pKd [5]
COc1cc2c(Oc3ccc4[nH]c(C)cc4c3F)ncnc2cc1OCCCN1CCCC1 [CEDIRANIB] | > 30 µM (inactive) | > 30 µM (inactive) | > 30 µM (inactive) | – | – | – | – | – | – | – | – | – | – | –
N#CCNC(=O)c1ccc(-c2ccnc(Nc3ccc(N4CCOCC4)cc3)n2)cc1 [MOMELOTINIB] | > 30 µM (inactive) | > 30 µM (inactive) | > 30 µM (inactive) | > 30 µM (inactive) | 0.313 µM (active) | > 30 µM (inactive) | – | > 30 µM (inactive) | – | > 30 µM (inactive) | 0.859 µM (active) | > 30 µM (inactive) | – | –
CC1(COc2ccc3c(c2)ncn3-c2ccc3cccc(N4CCC(N)CC4)c3n2)COC1 [CRENOLANIB] | > 30 µM (inactive) | > 30 µM (inactive) | > 30 µM (inactive) | > 30 µM (inactive) | > 30 µM (inactive) | > 30 µM (inactive) | > 30 µM (inactive) | – | 0.455 µM (active) | > 30 µM (inactive) | 0.002 µM (active) | – | 282 nM (active) | –
C=CCn1c(=O)c2cnc(Nc3ccc(N4CCN(C)CC4)cc3)nc2n1-c1cccc(C(C)(C)O)n1 [ADAVOSERTIB] | > 30 µM (inactive) | > 30 µM (inactive) | > 30 µM (inactive) | > 30 µM (inactive) | > 30 µM (inactive) | > 30 µM (inactive) | > 30 µM (inactive) | > 30 µM (inactive) | – | > 30 µM (inactive) | > 30 µM (inactive) | – | – | –
CC1(C)CNc2cc(NC(=O)c3cccnc3NCc3ccncc3)ccc21 [MOTESANIB] | > 30 µM (inactive) | > 30 µM (inactive) | > 30 µM (inactive) | – | – | – | – | – | – | – | – | – | – | –
Cn1cnc2c(F)c(Nc3ccc(Br)cc3Cl)c(C(=O)NOCCO)cc21 [SELUMETINIB] | > 30 µM (inactive) | > 30 µM (inactive) | > 30 µM (inactive) | – | – | – | – | – | – | – | – | – | – | –
C[C@]1(O)C[C@@H](c2nc(-c3ccc4ccc(-c5ccccc5)nc4c3)c3c(N)nccn32)C1 [LINSITINIB] | > 30 µM (inactive) | > 30 µM (inactive) | > 30 µM (inactive) | > 30 µM (inactive) | > 30 µM (inactive) | > 30 µM (inactive) | > 30 µM (inactive) | – | 0.614 µM (active) | – | > 30 µM (inactive) | > 30 µM (inactive) | – | –
O=S(=O)(c1cccc2cnccc12)N1CCCNCC1 [FASUDIL] | > 30 µM (inactive) | > 30 µM (inactive) | > 30 µM (inactive) | > 30 µM (inactive) | 48.9 µM (active) | > 30 µM (inactive) | – | – | – | – | > 30 µM (inactive) | – | – | –
CN(c1ncccc1CNc1nc(Nc2ccc3c(c2)CC(=O)N3)ncc1C(F)(F)F)S(C)(=O)=O [PF-00562271] | > 30 µM (inactive) | > 30 µM (inactive) | > 30 µM (inactive) | > 30 µM (inactive) | > 30 µM (inactive) | > 30 µM (inactive) | > 30 µM (inactive) | – | – | – | > 30 µM (inactive) | – | – | –
Cn1c(=O)n(-c2ccc(C(C)(C)C#N)cc2)c2c3cc(-c4cnc5ccccc5c4)ccc3ncc21 [DACTOLISIB] | > 30 µM (inactive) | > 30 µM (inactive) | > 30 µM (inactive) | > 30 µM (inactive) | > 30 µM (inactive) | > 30 µM (inactive) | > 30 µM (inactive) | > 30 µM (inactive) | – | > 30 µM (inactive) | > 30 µM (inactive) | – | – | –
CN1CCN(c2nc(C3=C(c4c[nH]c5ccccc45)C(=O)NC3=O)c3ccccc3n2)CC1 [SOTRASTAURIN] | > 30 µM (inactive) | > 30 µM (inactive) | > 30 µM (inactive) | > 30 µM (inactive) | > 30 µM (inactive) | > 30 µM (inactive) | – | > 30 µM (inactive) | – | > 30 µM (inactive) | > 30 µM (inactive) | > 30 µM (inactive) | – | 5.17

Now from value to compound, other results behind:

Kd [1] | Kd [8] | Kd [10] | SMILES | Kd [2] | Kd [3] | Kd [4] | Kd [5] | Kd [6] | Kd [7] | Kd [9] | Kd [11] | Kd [12] | Kd [13] | pKd [5]
> 30 µM (inactive) | > 30 µM (inactive) | > 30 µM (inactive) | CCN(CCCOc1ccc2c(Nc3cc(CC(=O)Nc4cccc(F)c4)n[nH]3)ncnc2c1)CCOP(=O)(O)O [BARASERTIB] | > 30 µM (inactive) | > 30 µM (inactive) | > 30 µM (inactive) | > 30 µM (inactive) | > 30 µM (inactive) | 2.24 µM (active) | > 30 µM (inactive) | > 30 µM (inactive) | – | – | –
> 30 µM (inactive) | > 30 µM (inactive) | > 30 µM (inactive) | COc1cc2c(N3CCN(C(=O)Nc4ccc(OC(C)C)cc4)CC3)ncnc2cc1OCCCN1CCCCC1 [TANDUTINIB] | – | – | – | – | – | – | – | – | – | – | –
> 30 µM (inactive) | > 30 µM (inactive) | > 30 µM (inactive) | C[C@@]1(C(=O)Nc2ccc(F)nc2)CCCN1c1nc(Nc2cc(C3CC3)n[nH]2)c2cccn2n1 [BMS-754807] | – | – | – | – | – | – | – | – | – | – | –
> 30 µM (inactive) | > 30 µM (inactive) | > 30 µM (inactive) | CCOc1ccn(-c2ccc(F)cc2)c(=O)c1C(=O)Nc1ccc(Oc2ccnc(N)c2Cl)c(F)c1 [BMS-777607] | > 30 µM (inactive) | > 30 µM (inactive) | 0.039 µM (active) | > 30 µM (inactive) | > 30 µM (inactive) | > 30 µM (inactive) | > 30 µM (inactive) | > 30 µM (inactive) | > 30 µM (inactive) | – | –
> 30 µM (inactive) | > 30 µM (inactive) | > 30 µM (inactive) | CN(C)C/C=C/C(=O)Nc1cc2c(Nc3ccc(F)c(Cl)c3)ncnc2cc1O[C@H]1CCOC1 [AFATINIB] | – | – | – | – | – | – | – | – | – | – | –
